Laboratory results published in patent US9458176B2, “Tetrahydroimidazo(1,5-D)[1,4]oxazepine derivative” (Eisai R&D Management Co., Ltd., priority 2013, dated 2016).

Molecular target: human mGluR2 (Homo sapiens (Human), UniProt Q14416)
Assay: [35S]GTPγS binding assay (Affinity to mGluR2)
Assay type: biochemical
Details: cell membrane fraction of HEK293 cells stably expressing human mGluR2; glutamic acid 10 μM
Protocol: (Preparation of Cell Membrane Fraction of HEK293 Cells Stably Expressing Human Metabotropic Glutamate Receptor 2 (mGluR2))
HEK293 cells stably expressing human mGluR2 and human glutamate transporter SLC1A3 were cultured in a Dulbecco's modified Eagle's medium with 10% fetal bovine serum (50 units/mL of penicillin, 50 μg/mL of streptomycin, 60 μg/mL of geneticin, 400 μg/mL of hygromycin B and 2 mM of glutamine) at 37° C. under 5% CO2. Confluent cell cultures were washed twice with PBS(−), and then scraped off with a cell scraper, and subjected to centrifugal separation at 4° C. and 1500 rpm for 5 minutes for collecting cells. The centrifuged sediment (cell pellet) was homogenized in a 20 mM HEPES buffer containing 10 mM EDTA (pH 7.4) by using sonicator and centrifuged at 4° C. and 1500×g for 30 minutes. The supernatant (soluble fraction) was subjected to the centrifugal separation at 4° C. and 40,000×g for 30 minutes, and thus, insoluble fraction was obtained. After additional centrifugally washing the obtained fraction with 20 mM HEPES buffer containing 10 mM EDTA (pH 7.4), the pellet was centrifugally suspended with a 20 mM HEPES buffer containing 0.1 mM EDTA, and the cell membrane fraction was obtained by the centrifugal separation at 4° C. and 40,000×g for 30 minutes. The thus obtained cell membrane fraction was suspended in a 20 mM HEPES buffer containing 0.1 mM EDTA in a protein concentration of 3 mg/mL, which was stored at −80° C.
([^35S]GTPγS Binding Assay)
The frozen cell membrane fraction prepared as described above was thawed before use, and the resultant was diluted with a buffer for a binding assay (final concentrations: 20 mM HEPES, 100 mM NaCl, 1 mM MgCl2, 3 μM GDP, 300 μg/mL saponin, 0.1% BSA). The compound of each example was added to a cell membrane fraction containing 1.8 to 3 μg/assay of membrane protein on a plate, followed by incubation at room temperature for 30 minutes. Thereafter, with glutamic acid (in a final concentration of 10 μM) added thereto, incubation was performed at room temperature for 15 minutes, and thereafter, [^35S]GTPγS (in a final concentration of 0.8 kBq) and 588 μg WGA-SPA beads were added thereto, followed by incubation at room temperature for 1 hour. After the incubation, the plate was subjected to the centrifugal separation at 2,500 rpm and room temperature, and then, membrane cell binding radioactivity was measured with a top count.
A [^35S]GTPγS binding amount obtained by performing the above-described reaction in the absence of glutamic acid was defined as nonspecific binding, and a difference from a [^35S]GTPγS binding amount obtained in the presence of glutamic acid was defined as specific binding. On the basis of ratios of inhibiting the specific binding at various concentrations of the compounds of the respective examples, inhibition curves were obtained. Concentrations of the compounds of the respective examples at which the specific [^35S]GTPγS binding amount was suppressed by 50% (IC50 values) were calculated on the basis of the inhibition curves and shown in Tables 8 and 9.

human mGluR2, sequence (Q14416 19-872): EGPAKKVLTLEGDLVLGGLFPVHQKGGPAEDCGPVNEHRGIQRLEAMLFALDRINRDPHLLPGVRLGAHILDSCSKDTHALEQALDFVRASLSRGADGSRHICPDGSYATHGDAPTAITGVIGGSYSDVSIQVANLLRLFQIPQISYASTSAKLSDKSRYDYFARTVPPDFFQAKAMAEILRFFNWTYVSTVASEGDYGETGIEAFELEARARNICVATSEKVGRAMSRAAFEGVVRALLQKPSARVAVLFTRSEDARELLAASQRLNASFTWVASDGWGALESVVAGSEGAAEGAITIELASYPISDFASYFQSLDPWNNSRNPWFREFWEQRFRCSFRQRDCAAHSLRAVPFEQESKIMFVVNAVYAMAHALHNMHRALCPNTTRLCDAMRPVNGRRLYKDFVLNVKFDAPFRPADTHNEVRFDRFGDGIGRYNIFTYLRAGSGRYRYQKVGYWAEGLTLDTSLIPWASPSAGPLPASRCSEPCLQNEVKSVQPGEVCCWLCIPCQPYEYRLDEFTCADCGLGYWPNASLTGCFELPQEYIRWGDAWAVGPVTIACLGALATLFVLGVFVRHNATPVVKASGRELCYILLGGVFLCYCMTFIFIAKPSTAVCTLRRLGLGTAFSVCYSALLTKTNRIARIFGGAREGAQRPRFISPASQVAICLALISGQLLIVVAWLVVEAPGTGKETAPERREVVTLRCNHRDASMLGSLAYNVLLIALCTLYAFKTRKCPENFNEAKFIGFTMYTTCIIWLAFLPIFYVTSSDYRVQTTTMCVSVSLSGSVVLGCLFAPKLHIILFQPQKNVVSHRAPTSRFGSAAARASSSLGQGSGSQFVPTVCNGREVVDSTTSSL

Row | Structure (SMILES) | IC50
1 | Cc1cc(-c2nc(-c3ccc(OCC(F)(F)F)c(F)c3)n3c2CCOCC3)cc(C)n1 [Example 2, 1-(2,6-dimethylpyridin-4-yl)-3-(3-fluoro-4-(2,2,2-trifluoroethoxy)phenyl)-5,6,8,9-tetrahydroimidazo[1,5-d][1,4]oxazepine] | 97.4 nM
2 | Cc1cc(-c2nc(-c3ccc(F)c(OCCF)c3)n3c2CCO[C@H](C)C3)cc(C)n1 [Example 5, (R)-1-(2,6-dimethylpyridin-4-yl)-3-(4-fluoro-3-(2-fluoroethoxy)phenyl)-6-methyl-5,6,8,9-tetrahydroimidazo[1,5-d][1,4]oxazepine] | 26.5 nM
3 | Cc1cc(-c2nc(-c3ccc(F)c(OCC4CC4)c3)n3c2CCO[C@H](C)C3)cc(C)n1 [Example 6, (R)-3-(3-cyclopropylmethoxy-4-fluorophenyl)-1-(2,6-dimethylpyridin-4-yl)-6-methyl-5,6,8,9-tetrahydroimidazo[1,5-d][1,4]oxazepine] | 13 nM
4 | Cc1cc(-c2nc(-c3ccc(OC(F)F)c(C)c3)n3c2CCO[C@H](C)C3)ccn1 [Example 15, (R)-3-(4-(difluoromethoxy)-3-methylphenyl)-6-methyl-1-(2-methylpyridin-4-yl)-5,6,8,9-tetrahydroimidazo[1,5-d][1,4]oxazepine] | 7.4 nM
5 | COc1cc(-c2nc(-c3ccnc(C)c3)c3n2C[C@@H](CF)OCC3)ccc1OC(F)(F)F [Example 17, (S)-6-(fluoromethyl)-3-(3-methoxy-4-(trifluoromethoxy)phenyl)-1-(2-methylpyridin-4-yl)-5,6,8,9-tetrahydroimidazo[1,5-d][1,4]oxazepine] | 3.8 nM
6 | COc1ccc(-c2nc(-c3cc(C)nc(C)c3)c3n2C[C@@H](C)OCC3)cc1C [Example 18, (R)-1-(2,6-dimethylpyridin-4-yl)-3-(4-methoxy-3-methylphenyl)-6-methyl-5,6,8,9-tetrahydroimidazo[1,5-d][1,4]oxazepine] | 12.3 nM

The next lines start with the values.

Row | IC50 | Structure (SMILES)
7 | 13.9 nM | Cc1cc(-c2nc(-c3ccc(Cl)c(OCC(F)(F)F)c3)n3c2CCOCC3)cc(C)n1 [Example 3, 3-(4-chloro-3-(2,2,2-trifluoroethoxy)phenyl)-1-(2,6-dimethylpyridin-4-yl)-5,6,8,9-tetrahydroimidazo[1,5-d][1,4]oxazepine]
8 | 31.9 nM | COc1cc(-c2nc(-c3cc(C)nc(C)c3)c3n2CCOCC3)ccc1Br [Example 4, 3-(4-bromo-3-methoxyphenyl)-1-(2,6-dimethylpyridin-4-yl)-5,6,8,9-tetrahydroimidazo[1,5-d][1,4]oxazepine]
9 | 13.2 nM | COc1cc(-c2nc(-c3ccnc(C)c3)c3n2C[C@@H](C)OCC3)ccc1C(F)(F)F [Example 8, (R)-3-(3-methoxy-4-(trifluoromethyl)phenyl)-6-methyl-1-(2-methylpyridin-4-yl)-5,6,8,9-tetrahydroimidazo[1,5-d][1,4]oxazepine]
10 | 1.9 nM | Cc1cc(-c2nc(-c3ccc(OC(F)(F)F)c(C)c3)n3c2CCO[C@H](C)C3)ccn1 [Example 9, (R)-6-methyl-3-(3-methyl-4-(trifluoromethoxy)phenyl)-1-(2-methylpyridin-4-yl)-5,6,8,9-tetrahydroimidazo[1,5-d][1,4]oxazepine]
11 | 28.3 nM | COc1cc(-c2nc(-c3ccnc(CF)c3)c3n2C[C@@H](C)OCC3)ccc1Cl [Example 12, (R)-3-(4-chloro-3-methoxyphenyl)-1-(2-(fluoromethyl)pyridin-4-yl)-6-methyl-5,6,8,9-tetrahydroimidazo[1,5-d][1,4]oxazepine]
12 | 5.7 nM | COc1cc(-c2nc(-c3cc(C)nc(CF)c3)c3n2C[C@@H](C)OCC3)ccc1Cl [Example 13, (R)-3-(4-chloro-3-methoxyphenyl)-1-(2-(fluoromethyl)-6-methylpyridin-4-yl)-6-methyl-5,6,8,9-tetrahydroimidazo[1,5-d][1,4]oxazepine]
13 | 2.7 nM | COc1cc(-c2nc(-c3cc(C)nc(C)c3)c3n2C[C@@H](CF)OCC3)ccc1OC(F)(F)F [Example 16, (S)-1-(2,6-dimethylpyridin-4-yl)-6-(fluoromethyl)-3-(3-methoxy-4-(trifluoromethoxy)phenyl)-5,6,8,9-tetrahydroimidazo[1,5-d][1,4]oxazepine]
